Measured values from article PMC6437697 (Journal of Medicinal Chemistry, 2019).

Tests used:
Test in all cases: KINOMEscan
Format in all cases: binding
Settings in all cases: read-out: % control activity remaining
[1] = target: T1, CAMK1G (Homo sapiens, UniProt Q96NX5)
T1 construct: purchased Eurofins DiscoverX KINOMEscan

[2] = target: T2, CAMKK1 (Homo sapiens, UniProt Q8N5S9)
T2 construct: purchased Eurofins DiscoverX KINOMEscan

[3] = target: T3, CDK4-cyclinD1 (Homo sapiens, UniProt P11802)
T3 construct: purchased Eurofins DiscoverX KINOMEscan

[4] = target: T4, CDKL5 (Homo sapiens, UniProt O76039)
T4 construct: purchased Eurofins DiscoverX KINOMEscan
T4 sequence (O76039 1-960): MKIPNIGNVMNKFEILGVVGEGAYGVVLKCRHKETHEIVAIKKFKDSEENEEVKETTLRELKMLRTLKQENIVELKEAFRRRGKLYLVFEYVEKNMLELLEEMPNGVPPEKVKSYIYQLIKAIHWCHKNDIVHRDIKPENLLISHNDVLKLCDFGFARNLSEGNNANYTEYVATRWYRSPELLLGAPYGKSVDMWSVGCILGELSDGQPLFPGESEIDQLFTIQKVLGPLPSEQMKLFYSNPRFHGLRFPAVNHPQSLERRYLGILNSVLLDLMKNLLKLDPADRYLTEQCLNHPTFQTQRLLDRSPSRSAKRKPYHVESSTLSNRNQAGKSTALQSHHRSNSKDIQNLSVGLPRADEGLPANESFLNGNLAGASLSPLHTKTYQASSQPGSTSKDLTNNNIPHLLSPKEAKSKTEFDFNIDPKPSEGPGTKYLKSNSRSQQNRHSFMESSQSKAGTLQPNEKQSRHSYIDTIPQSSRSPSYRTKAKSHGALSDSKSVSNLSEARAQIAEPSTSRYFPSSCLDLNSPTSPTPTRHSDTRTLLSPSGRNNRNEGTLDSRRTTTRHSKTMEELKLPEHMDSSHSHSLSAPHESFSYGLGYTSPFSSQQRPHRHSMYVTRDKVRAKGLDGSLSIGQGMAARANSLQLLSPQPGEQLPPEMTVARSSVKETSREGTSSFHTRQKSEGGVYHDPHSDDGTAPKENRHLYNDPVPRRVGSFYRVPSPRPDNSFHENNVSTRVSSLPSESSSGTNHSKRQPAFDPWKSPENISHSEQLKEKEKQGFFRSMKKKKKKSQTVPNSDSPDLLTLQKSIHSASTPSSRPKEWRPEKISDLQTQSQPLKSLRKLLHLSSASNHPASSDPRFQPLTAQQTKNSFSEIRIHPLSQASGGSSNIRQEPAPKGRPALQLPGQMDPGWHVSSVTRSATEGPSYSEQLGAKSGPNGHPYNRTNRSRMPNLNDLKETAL

[5] = target: T5, FGFR2 (Homo sapiens, UniProt P21802)
T5 construct: purchased Eurofins DiscoverX KINOMEscan

[6] = target: T6, FGFR3 (Homo sapiens, UniProt P22607)
T6 construct: purchased Eurofins DiscoverX KINOMEscan

[7] = target: T7, JAK3(JH1domain-catalytic) (Homo sapiens, UniProt P52333)
T7 construct: JAK3(JH1domain-catalytic); purchased Eurofins DiscoverX KINOMEscan

[8] = target: T8, MINK (Homo sapiens, UniProt Q8N4C8)
T8 construct: purchased Eurofins DiscoverX KINOMEscan

[9] = target: T9, PIM1 (Homo sapiens, UniProt P11309)
T9 construct: purchased Eurofins DiscoverX KINOMEscan

[10] = target: T10, PKAC-alpha (Homo sapiens, UniProt P17612)
T10 construct: purchased Eurofins DiscoverX KINOMEscan

[11] = target: T11, SGK (Homo sapiens, UniProt O00141)
T11 construct: purchased Eurofins DiscoverX KINOMEscan
T11 sequence (O00141 1-431): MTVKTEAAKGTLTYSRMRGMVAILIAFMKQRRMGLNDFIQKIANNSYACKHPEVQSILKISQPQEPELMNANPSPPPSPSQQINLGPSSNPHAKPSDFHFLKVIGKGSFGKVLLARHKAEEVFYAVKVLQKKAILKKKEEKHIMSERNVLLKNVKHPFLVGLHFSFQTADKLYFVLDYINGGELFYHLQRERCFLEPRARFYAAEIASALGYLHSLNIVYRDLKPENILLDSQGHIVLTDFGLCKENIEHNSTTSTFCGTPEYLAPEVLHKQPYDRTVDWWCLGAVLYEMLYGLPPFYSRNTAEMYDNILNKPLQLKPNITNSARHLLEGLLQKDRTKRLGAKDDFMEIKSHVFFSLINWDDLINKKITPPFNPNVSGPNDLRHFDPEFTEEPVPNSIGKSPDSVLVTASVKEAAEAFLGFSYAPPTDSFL

[12] = target: T12, SGK3 (Homo sapiens, UniProt Q96BR1)
T12 construct: purchased Eurofins DiscoverX KINOMEscan
T12 sequence (Q96BR1 1-496): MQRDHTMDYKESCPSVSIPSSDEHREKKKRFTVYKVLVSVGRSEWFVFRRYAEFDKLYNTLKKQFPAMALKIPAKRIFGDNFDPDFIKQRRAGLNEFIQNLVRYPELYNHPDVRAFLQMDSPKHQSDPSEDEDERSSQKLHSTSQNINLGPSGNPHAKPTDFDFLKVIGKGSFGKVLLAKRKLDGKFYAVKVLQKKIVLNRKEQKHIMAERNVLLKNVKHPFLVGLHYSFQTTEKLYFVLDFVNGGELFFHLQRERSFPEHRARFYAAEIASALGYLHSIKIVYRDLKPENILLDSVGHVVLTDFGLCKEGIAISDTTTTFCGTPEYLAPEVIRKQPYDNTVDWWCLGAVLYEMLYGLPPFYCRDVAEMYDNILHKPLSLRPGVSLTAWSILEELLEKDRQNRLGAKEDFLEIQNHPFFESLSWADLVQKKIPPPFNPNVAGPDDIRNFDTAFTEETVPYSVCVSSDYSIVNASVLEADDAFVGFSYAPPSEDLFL

[13] = target: T13, TIE2 (Homo sapiens, UniProt Q02763)
T13 construct: purchased Eurofins DiscoverX KINOMEscan
T13 sequence (Q02763 23-1124): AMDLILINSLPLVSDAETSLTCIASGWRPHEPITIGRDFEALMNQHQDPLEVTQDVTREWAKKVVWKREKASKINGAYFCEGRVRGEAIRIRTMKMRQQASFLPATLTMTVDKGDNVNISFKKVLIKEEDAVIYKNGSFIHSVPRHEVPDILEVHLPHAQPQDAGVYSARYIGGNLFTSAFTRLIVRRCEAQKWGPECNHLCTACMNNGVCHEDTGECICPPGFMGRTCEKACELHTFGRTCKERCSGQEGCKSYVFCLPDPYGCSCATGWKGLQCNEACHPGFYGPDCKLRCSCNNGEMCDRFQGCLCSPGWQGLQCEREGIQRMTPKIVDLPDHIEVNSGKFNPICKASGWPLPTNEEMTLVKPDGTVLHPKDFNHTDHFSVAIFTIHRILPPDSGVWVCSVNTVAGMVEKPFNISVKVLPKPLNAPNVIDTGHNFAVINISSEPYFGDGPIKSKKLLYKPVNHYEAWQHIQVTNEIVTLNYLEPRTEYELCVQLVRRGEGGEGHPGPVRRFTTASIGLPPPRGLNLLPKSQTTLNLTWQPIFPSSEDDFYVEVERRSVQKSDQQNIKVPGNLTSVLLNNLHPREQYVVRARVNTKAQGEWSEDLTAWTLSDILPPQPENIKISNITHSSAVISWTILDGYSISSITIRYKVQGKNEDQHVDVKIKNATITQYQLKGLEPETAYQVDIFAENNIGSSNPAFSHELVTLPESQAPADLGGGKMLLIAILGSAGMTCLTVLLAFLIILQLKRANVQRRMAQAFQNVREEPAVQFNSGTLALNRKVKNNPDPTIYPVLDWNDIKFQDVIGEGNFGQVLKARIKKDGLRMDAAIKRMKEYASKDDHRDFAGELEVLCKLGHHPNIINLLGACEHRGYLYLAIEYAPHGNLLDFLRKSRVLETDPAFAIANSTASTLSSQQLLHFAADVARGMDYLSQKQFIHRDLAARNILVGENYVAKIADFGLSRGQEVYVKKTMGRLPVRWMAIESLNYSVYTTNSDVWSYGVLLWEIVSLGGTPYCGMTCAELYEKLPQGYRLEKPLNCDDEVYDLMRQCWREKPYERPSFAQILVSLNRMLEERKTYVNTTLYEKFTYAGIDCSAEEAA

T1 sequence (Q96NX5 whole entry): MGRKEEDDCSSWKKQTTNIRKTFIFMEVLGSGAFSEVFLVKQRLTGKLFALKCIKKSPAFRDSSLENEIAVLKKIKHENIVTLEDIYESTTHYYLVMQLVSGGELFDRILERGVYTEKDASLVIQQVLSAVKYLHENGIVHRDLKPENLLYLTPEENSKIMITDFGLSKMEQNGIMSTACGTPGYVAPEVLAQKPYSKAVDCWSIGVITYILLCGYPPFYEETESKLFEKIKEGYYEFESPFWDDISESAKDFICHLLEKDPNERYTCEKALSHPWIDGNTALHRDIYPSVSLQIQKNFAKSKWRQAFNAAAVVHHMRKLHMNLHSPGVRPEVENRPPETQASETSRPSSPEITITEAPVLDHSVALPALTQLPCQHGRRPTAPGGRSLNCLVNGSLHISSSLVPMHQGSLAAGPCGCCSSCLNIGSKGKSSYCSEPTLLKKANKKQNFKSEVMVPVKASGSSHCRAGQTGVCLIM
T7 sequence (P52333 822-1124 limits assumed): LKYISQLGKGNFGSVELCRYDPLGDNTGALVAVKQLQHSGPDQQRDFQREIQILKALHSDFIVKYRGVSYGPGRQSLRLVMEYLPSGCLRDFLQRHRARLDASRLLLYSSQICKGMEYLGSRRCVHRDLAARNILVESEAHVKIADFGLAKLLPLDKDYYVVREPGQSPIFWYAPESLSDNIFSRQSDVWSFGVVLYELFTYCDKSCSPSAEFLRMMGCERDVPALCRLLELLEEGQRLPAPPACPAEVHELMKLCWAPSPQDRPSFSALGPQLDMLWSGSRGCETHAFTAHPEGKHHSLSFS
T2 sequence (Q8N5S9 whole entry): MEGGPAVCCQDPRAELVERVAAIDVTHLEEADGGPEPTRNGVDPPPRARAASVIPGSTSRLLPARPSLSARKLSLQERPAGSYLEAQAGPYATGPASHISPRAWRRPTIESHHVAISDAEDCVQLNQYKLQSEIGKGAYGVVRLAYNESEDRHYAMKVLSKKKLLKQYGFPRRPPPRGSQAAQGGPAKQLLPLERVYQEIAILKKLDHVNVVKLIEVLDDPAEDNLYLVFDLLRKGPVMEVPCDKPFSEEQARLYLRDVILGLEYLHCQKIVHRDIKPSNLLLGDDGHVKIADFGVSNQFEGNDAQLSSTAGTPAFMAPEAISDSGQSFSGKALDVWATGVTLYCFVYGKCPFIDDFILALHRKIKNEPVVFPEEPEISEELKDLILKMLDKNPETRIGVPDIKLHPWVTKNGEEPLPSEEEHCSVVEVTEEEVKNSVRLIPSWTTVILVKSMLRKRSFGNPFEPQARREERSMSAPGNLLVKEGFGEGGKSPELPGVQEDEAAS
T8 sequence (Q8N4C8 whole entry): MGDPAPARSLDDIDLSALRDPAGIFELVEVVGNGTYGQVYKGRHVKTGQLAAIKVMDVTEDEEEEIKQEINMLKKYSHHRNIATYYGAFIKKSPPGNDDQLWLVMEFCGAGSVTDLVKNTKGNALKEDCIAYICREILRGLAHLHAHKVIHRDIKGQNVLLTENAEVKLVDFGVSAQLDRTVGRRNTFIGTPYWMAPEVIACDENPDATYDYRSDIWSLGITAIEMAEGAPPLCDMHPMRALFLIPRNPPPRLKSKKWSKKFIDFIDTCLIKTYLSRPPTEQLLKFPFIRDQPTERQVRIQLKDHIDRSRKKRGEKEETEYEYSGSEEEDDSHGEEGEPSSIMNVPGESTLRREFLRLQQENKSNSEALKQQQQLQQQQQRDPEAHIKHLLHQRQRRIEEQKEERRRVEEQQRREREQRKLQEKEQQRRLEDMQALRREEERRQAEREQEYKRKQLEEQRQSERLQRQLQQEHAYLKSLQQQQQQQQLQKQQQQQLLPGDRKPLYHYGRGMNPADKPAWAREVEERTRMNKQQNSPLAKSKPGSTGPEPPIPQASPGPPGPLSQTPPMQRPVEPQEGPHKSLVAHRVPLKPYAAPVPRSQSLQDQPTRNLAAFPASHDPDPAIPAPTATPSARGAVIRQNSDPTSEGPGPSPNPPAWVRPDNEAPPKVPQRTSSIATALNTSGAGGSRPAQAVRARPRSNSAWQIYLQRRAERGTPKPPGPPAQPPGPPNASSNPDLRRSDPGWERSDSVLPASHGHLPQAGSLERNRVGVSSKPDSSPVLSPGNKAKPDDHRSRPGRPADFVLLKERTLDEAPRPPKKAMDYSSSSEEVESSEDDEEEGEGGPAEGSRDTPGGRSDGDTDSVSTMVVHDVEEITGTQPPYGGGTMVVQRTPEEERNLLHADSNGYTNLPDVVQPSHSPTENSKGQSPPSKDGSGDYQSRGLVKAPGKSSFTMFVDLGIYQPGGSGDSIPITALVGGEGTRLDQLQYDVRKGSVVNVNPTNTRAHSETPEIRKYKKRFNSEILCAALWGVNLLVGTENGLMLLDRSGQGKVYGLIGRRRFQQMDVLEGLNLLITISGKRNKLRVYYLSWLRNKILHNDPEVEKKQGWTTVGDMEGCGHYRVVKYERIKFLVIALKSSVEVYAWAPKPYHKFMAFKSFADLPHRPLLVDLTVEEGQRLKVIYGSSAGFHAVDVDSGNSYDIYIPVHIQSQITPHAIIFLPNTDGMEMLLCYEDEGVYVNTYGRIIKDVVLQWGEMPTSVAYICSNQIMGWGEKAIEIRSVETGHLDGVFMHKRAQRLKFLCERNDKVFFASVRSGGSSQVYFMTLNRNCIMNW
T3 sequence (P11802 whole entry): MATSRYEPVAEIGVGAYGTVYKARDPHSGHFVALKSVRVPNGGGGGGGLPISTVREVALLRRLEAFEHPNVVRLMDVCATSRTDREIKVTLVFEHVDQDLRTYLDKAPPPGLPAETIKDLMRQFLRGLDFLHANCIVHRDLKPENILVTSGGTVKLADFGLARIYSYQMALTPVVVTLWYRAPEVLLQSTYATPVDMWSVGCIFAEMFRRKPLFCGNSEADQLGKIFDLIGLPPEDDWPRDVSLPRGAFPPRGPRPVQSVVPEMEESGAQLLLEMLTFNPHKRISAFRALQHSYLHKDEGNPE
T3 sequence (P24385 whole entry partner): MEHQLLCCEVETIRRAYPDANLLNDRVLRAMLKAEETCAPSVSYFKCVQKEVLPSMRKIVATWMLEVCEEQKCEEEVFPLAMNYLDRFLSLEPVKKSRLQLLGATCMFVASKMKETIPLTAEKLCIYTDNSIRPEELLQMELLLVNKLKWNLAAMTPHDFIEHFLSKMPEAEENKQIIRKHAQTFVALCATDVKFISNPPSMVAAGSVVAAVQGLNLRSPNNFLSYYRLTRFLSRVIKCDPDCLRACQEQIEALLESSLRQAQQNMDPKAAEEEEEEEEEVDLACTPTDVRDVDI
T9 sequence (P11309 whole entry): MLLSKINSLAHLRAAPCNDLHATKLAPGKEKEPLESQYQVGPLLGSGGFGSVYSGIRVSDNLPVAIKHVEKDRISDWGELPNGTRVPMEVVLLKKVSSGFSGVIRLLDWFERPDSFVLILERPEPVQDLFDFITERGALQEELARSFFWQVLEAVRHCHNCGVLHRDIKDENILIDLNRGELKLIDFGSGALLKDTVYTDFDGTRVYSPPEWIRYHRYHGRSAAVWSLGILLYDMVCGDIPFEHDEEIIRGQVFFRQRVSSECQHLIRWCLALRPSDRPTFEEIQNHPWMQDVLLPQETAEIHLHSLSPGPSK

Row | Compound | remaining binding at 1 µM [1] | remaining binding at 1 µM [2] | remaining binding at 1 µM [3] | remaining binding at 1 µM [4] | remaining binding at 1 µM [5] | remaining binding at 1 µM [6] | remaining binding at 1 µM [7] | remaining binding at 1 µM [8] | remaining binding at 1 µM [9] | remaining binding at 1 µM [10] | remaining binding at 1 µM [11] | remaining binding at 1 µM [12] | remaining binding at 1 µM [13]
1 | CN1CCC(CNc2cc(Cl)nn3c(-c4cc5nc(Nc6ccccc6)[nH]c5cc4F)cnc23)CC1 [compound 31, 6-Chloro-3-(6-fluoro-2-(phenylamino)-1H-benzo[d]imidazol-5-yl)-N-((1-methylpiperidin-4-yl)methyl)imidazo[1,2-b]pyridazin-8-amine] | 100% | 98% | 87% | 96% | 84% | 91% | 82% | 87% | 95% | 94% | 76% | 93% | 91%
2 | O=C(CN1CCOCC1)N[C@H]1CC[C@H](Nc2cc(Cl)nn3c(-c4ccc5[nH]ncc5c4)cnc23)CC1 [compound 26] | 51% | 52% | 93% | 46% | 91% | 94% | 100% | 57% | 68% | 100% | 94% | 65% | 89%
3 | Clc1cc(NCC2CC2)c2ncc(-c3ccc4[nH]ncc4c3)n2n1 [compound 2, 6-Chloro-N-(cyclopropylmethyl)-3-(1H-indazol-5-yl)imidazo[1,2-b]pyridazin-8-amine] | 76% | 94% | 88% | 100% | 85% | 90% | 100% | 72% | 100% | 68% | 91% | 91% | 78%
